Values quoted from earlier work, collected in patent publication US11369498B2, “Stent and stent delivery system with improved deliverability” (MT Acquisition Holdings LLC, priority 2010, dated 2022).

Details: 25 C.

For `[Cl-].[Na+]` [NaCl], the Water sol is listed as 35.7 g/100 g.
